How the values were obtained:
[1] = Storage of acidic, concentrated permeate in a fridge; GAA content determined by HPLC; assay type: physicochemical; details: for GAA content: acidic and concentrated permeate stored in a fridge
Procedure: After fermentation and inactivation of the fermentation broth, the pH of the broth was adjusted to 1.5 using 75% w/w of H2SO4 at a temperature of 50° C. The biomass was removed by means of ultrafiltration and the temperature of the broth was kept constant at 50° C. The resulting permeate was concentrated at 80° C. and used for the crystallization step. The permeate fed to the crystallization was adjusted to pH 8 using 25% w/w of NH4OH. The formed crystals were separated by means of a suction filter and dried.
A part of the acidic and concentrated permeate was stored aside in a fridge over a period of ca. 2 weeks. The GAA content in said permeate was regularly determined by means of HPLC.
Description of the HPLC Method:
• 2.3 g ammonium dihydrogenphosphate (NH4H2PO4) and • 2.6 g di-ammonium hydrogenphosphate ((NH4)2HPO4) • dissolved in 2 L purified water
2.3 g ammonium dihydrogenphosphate (NH4H2PO4) and • 2.6 g di-ammonium hydrogenphosphate ((NH4)2HPO4) • dissolved in 1 L purified water and mixed with 1 L acetonitrile
The following gradient was used in the HPLC method: […]

[2] = aqueous medium; cited from earlier work

GAA content ([1]; 1 Apr. 2022): 120.9 g/kg
GAA content ([1]; 7 Apr. 2022): 118.5 g/kg
GAA content ([1]; 12 Apr. 2022): 119.9 g/kg
GAA content ([1]; 13 Apr. 2022): 119.3 g/kg
degradation of the GAA in the acidic and concentrated permeate ([1]; fridge, over the 2-week period, HPLC): no degradation
Compound: N=C(N)NCC(=O)O [GAA, guanidinoacetic acid]
pKa [2]: approximately 2.9
pKb [2]: approximately 10.91

Source: patent publication US20260226001A1, “PROCESS FOR PREPARING AN N-GUANYLAMINO ACID” (Evonik Operations GmbH, priority 2023, published 2026)
